From ChEMBL document CHEMBL1201862, “PubChem BioAssay data set” (2004)
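All cell lines were grown in 96-well plates and treated with compound for 48 hours. GI50: concentration for 50% inhibition of growth.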 Active and inactive are the calls of the source. No stated cut-off is given here; in the data, active = GI50 up to about 1.1 µM and inactive = higher.

Tests used:
Assay in all cases: inhibition of tumour cell growth, NCI panel, 48 h
[1] = test system: SK-OV-3
[2] = test system: K562
[3] = test system: SNB-19
[4] = test system: HOP-18
[5] = test system: HCC 2998
[6] = test system: SW-620
[7] = test system: DLD-1
[8] = test system: HCT-15
[9] = test system: M19-MEL
[10] = test system: RXF 393
[11] = test system: OVCAR-4
[12] = test system: A549
[13] = test system: SF-268
[14] = test system: UO-31
[15] = test system: UACC-257
[16] = test system: OVCAR-5
[17] = test system: LOX IMVI
[18] = test system: SF-539
[19] = test system: HL-60
[20] = test system: SK-MEL-5
[21] = test system: U-251
[22] = test system: SK-MEL-2
[23] = test system: CCRF-CEM
[24] = test system: NCI-H460
[25] = test system: MCF7
[26] = test system: NCI-H23
[27] = test system: RPMI-8226
[28] = test system: CAKI-1
[29] = test system: EKVX
[30] = test system: SNB-78
[31] = test system: NCI-H522
[32] = test system: OVCAR-8
[33] = test system: HOP-62
[34] = test system: HT-29
[35] = test system: HOP-92
[36] = test system: KM12
[37] = test system: NCI/ADR-RES
[38] = test system: SN12C
[39] = test system: DMS-273
[40] = test system: UACC-62
[41] = test system: SF-295
[42] = test system: Malme-3M
[43] = test system: MOLT-4
[44] = test system: COLO 205
[45] = test system: SNB-75
[46] = test system: XF498
[47] = test system: SK-MEL-28
[48] = test system: NCI-H226
[49] = test system: KM-20L2
[50] = test system: IGROV-1
[51] = test system: HCT-116
[52] = test system: OVCAR-3
[53] = test system: A498
[54] = test system: DMS-114
[55] = test system: M14
[56] = test system: ACHN
[57] = test system: TK-10
[58] = test system: 786-0

Measured: GI50

COc1ccc(CC(N)=O)cc1OC
1090 µM: [8]
inactive: [1] > 1250 µM | [2] > 1250 µM | [3] > 1250 µM | [4] 881 µM | [5] > 1250 µM | [6] > 1250 µM | [7] > 1250 µM | [9] > 1250 µM | [10] > 1250 µM | [11] > 1250 µM | [12] > 1250 µM | [13] > 1250 µM | [14] > 1250 µM | [15] 703 µM | [16] > 853 µM | [17] > 1250 µM | [18] > 1250 µM | [19] > 1150 µM | [20] > 1250 µM | [21] > 1250 µM | [22] > 1250 µM | [23] > 1250 µM | [24] > 1250 µM | [25] > 1250 µM | [26] > 1250 µM | [27] > 1250 µM | [28] 564 µM | [29] > 1250 µM | [30] > 1250 µM | [31] > 1250 µM | [32] 198 µM | [33] > 818 µM | [34] > 1250 µM | [35] 753 µM | [36] > 1250 µM | [37] > 1250 µM | [38] > 1250 µM | [39] > 1250 µM | [40] > 1250 µM | [41] > 1250 µM | [42] > 1250 µM | [43] > 1250 µM | [44] > 1250 µM | [45] 769 µM | [46] > 879 µM | [47] > 1250 µM | [48] > 1250 µM | [49] > 1140 µM | [50] > 1250 µM | [51] > 1250 µM | [52] > 1250 µM | [53] > 1250 µM | [54] > 1250 µM

COC(=O)C(C(=O)C(=O)Nc1ccc(N)cc1[N+](=O)[O-])c1nc2ccc(Cl)cc2nc1O (stereo not drawn)
> 100 µM: [8]
inactive: [1] > 100 µM | [2] > 100 µM | [3] > 100 µM | [4] 72.3 µM | [5] > 100 µM | [6] > 100 µM | [7] > 100 µM | [9] > 100 µM | [10] 60.7 µM | [11] > 100 µM | [12] > 100 µM | [13] 72.9 µM | [14] 41 µM | [15] > 100 µM | [16] > 100 µM | [17] > 100 µM | [18] > 100 µM | [19] > 100 µM | [20] 95.5 µM | [22] > 100 µM | [23] 92.5 µM | [24] > 100 µM | [55] > 100 µM | [26] > 100 µM | [27] > 100 µM | [28] > 100 µM | [29] > 100 µM | [30] > 100 µM | [32] > 100 µM | [33] > 100 µM | [34] > 100 µM | [35] 52.7 µM | [36] > 100 µM | [38] > 100 µM | [39] > 100 µM | [40] > 100 µM | [41] > 100 µM | [56] > 100 µM | [42] > 100 µM | [43] > 100 µM | [44] > 100 µM | [45] 32.4 µM | [57] > 100 µM | [46] 70.8 µM | [47] > 100 µM | [58] > 100 µM | [48] 63 µM | [49] > 100 µM | [50] > 100 µM | [51] > 100 µM | [52] 74.8 µM | [53] > 100 µM | [54] > 100 µM
